Laboratory results as given in PMC5131891, “Structural Insights into Streptococcal Competence Regulation by the Cell-to-Cell Communication System ComRS” (PLoS Pathogens, 2016).
Where a chain is given by its changes, count along the chain named. Several values for one entry are separate records, joined by “and”; a condition that tells them apart may be missing. Equal values may be shown once. Peptide text beside a SMILES is read from it.

T1: ComR E146A/D147A (Streptococcus thermophilus LMD-9, UniProt PDB:5JUB_1 1-310, E146A;D147A)
T1 sequence: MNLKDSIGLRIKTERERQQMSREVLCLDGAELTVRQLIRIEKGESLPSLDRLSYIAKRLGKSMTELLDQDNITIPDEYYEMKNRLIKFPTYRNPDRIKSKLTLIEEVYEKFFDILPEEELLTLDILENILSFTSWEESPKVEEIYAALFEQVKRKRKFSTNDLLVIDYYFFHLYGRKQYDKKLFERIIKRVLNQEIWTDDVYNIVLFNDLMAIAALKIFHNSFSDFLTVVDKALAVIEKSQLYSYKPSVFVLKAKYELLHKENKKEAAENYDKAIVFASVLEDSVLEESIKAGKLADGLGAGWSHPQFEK

T2: ComR WT (Streptococcus thermophilus LMD-9, UniProt PDB:5JUB_1 1-310)
T2 sequence: T1 sequence with A146E, A147D

T3: ComR K87A/K246A (Streptococcus thermophilus LMD-9, UniProt PDB:5JUB_1 1-310, K87A;K246A)
T3 sequence: T1 sequence with K87A, A146E, A147D, K246A

B1: Cy3-boxPster_1655 wt (40 bp) (dsDNA)
DNA 1: CAAAATCGAGTAGTGACATTTATGTCACTACTTTTTTGTT
DNA 2: AACAAAAAAGTAGTGACATAAATGTCACTACTCGATTTTG

What was measured:
[1] = compared with heptapeptide 18–24; ref [30]; cited from earlier work
Method: The corresponding synthetic XIP peptide […] as well as the variants used in the functional analysis were supplied by GenScript or Peptide 2.0 (Chantilly, VA) and resuspended at a concentration of 50 mM in 50% DMSO / 50% protein stora ...

[2] = molecular target: ComR F171A/Y174A (Streptococcus thermophilus, UniProt A0A1L1QK15, F171A/Y174A); test: ITC, XIP binding on ComR F171A/Y174A; design: species or system Streptococcus thermophilus LMD-9
ComR F171A/Y174A, sequence (A0A1L1QK15 entry or part of it F171A/Y174A): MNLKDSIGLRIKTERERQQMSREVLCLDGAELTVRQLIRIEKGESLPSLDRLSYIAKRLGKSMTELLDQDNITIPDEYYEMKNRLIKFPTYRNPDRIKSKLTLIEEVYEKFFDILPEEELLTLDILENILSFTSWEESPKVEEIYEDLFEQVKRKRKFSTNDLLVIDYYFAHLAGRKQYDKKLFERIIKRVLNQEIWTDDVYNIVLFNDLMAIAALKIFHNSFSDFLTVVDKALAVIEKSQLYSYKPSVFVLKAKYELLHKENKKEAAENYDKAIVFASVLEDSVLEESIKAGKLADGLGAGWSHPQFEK
Method: (§1) Purification of ComR-StreptagII proteins (StreptagII at C-terminus) was performed as described previously with some modifications. E. coli strain BL21 Gold cultures were grown in 2YT medium at 15°C until an OD600 of ~ 0.5, cooled down on ice for 10 minutes, and induced by addition of 0.2% of L-arabinose (wt vol^-1) before continuous shaking at 28°C for 4 h. Cells were then harvested by centrifugation (5,000 × g during 15 min at 8°C). The pellets were resuspended in cold buffer W (100 mM Tris-HCl pH 8.0, 150 mM NaCl, 1 mM EDTA) supplemented with 0.5 mg ml^−1 of lysozyme, incubated for 30 min at 4°C, and sonicated at 4°C. […] Their purity was visualized by SDS-PAGE and their concentrations were measured using a Nanodrop apparatus (protein A280 method) (ThermoFisher Scientific).
(§2) Isothermal titration calorimetry (ITC) experiments were performed at 20°C in 20 mM Tris-HCl pH 8.0, 150 mM NaCl, 1 mM EDTA with an ITC200 calorimeter (Microcal). […] The peptide concentration used in the calculations is based on the weight of the lyophilized peptide and is therefore inaccurate because there may be a significant quantity of bound water, and salts or counter ions. However, the calculated number of binding sites, n, is always close to 1, in agreement with the 1:1 ratio observed in the crystal structure of the ternary complex. […] The calculated KD are therefore apparent values.

[3] = molecular target: ComR R92A (Streptococcus thermophilus, UniProt A0A1L1QK15, R92A); test: ITC, XIP binding on ComR R92A; design: species or system Streptococcus thermophilus LMD-9
ComR R92A, sequence (A0A1L1QK15 entry or part of it R92A): as the sequence (A0A1L1QK15 entry or part of it F171A/Y174A) above, with R92A, A171F, A174Y counted along it
Method: as §1, §2

[4] = molecular target: ComR Y91A (Streptococcus thermophilus, UniProt A0A1L1QK15, Y91A); test: ITC, XIP binding on ComR Y91A; design: species or system Streptococcus thermophilus LMD-9
ComR Y91A, sequence (A0A1L1QK15 entry or part of it Y91A): as the sequence (A0A1L1QK15 entry or part of it F171A/Y174A) above, with Y91A, A171F, A174Y counted along it
Method: as §1, §2

[5] = molecular target: ComR K100A (Streptococcus thermophilus, UniProt A0A1L1QK15, K100A); test: ITC, XIP binding on ComR K100A; design: species or system Streptococcus thermophilus LMD-9
ComR K100A, sequence (A0A1L1QK15 entry or part of it K100A): as the sequence (A0A1L1QK15 entry or part of it F171A/Y174A) above, with K100A, A171F, A174Y counted along it
Method: as §1, §2

[6] = molecular target: ComR T90A (Streptococcus thermophilus, UniProt A0A1L1QK15, T90A); test: ITC, XIP binding on ComR T90A; design: species or system Streptococcus thermophilus LMD-9
ComR T90A, sequence (A0A1L1QK15 entry or part of it T90A): as the sequence (A0A1L1QK15 entry or part of it F171A/Y174A) above, with T90A, A171F, A174Y counted along it
Method: as §1, §2

[7] = molecular target: ComR K87A/K246A (Streptococcus thermophilus, UniProt A0A1L1QK15, K87A/K246A); test: ITC, XIP binding on ComR K87A/K246A; design: species or system Streptococcus thermophilus LMD-9; settings: ITC, ComR K87A/K246A
ComR K87A/K246A (Streptococcus thermophilus, UniProt A0A1L1QK15, K87A/K246A), sequence (A0A1L1QK15 entry or part of it K87A/K246A): as the sequence (A0A1L1QK15 entry or part of it F171A/Y174A) above, with K87A, A171F, A174Y, K246A counted along it
Method: as §1, §2

[8] = molecular target: ComR K87A/K246A (Streptococcus thermophilus, UniProt A0A1L1QK15, K246A/K87A); test: ITC, XIP binding on ComR K87A/K246A; design: species or system Streptococcus thermophilus LMD-9
ComR K87A/K246A (Streptococcus thermophilus, UniProt A0A1L1QK15, K246A/K87A), sequence (A0A1L1QK15 entry or part of it K87A/K246A): as the sequence (A0A1L1QK15 entry or part of it F171A/Y174A) above, with K87A, A171F, A174Y, K246A counted along it
Method: as §1, §2

[9] = molecular target: ComR WT (Streptococcus thermophilus, UniProt A0A1L1QK15); test: biochemical; format: binding, Streptococcus thermophilus LMD-9; settings: KD
ComR WT (Streptococcus thermophilus, UniProt A0A1L1QK15), sequence (A0A1L1QK15 entry or part of it): as the sequence (A0A1L1QK15 entry or part of it F171A/Y174A) above, with A171F, A174Y counted along it
Method: Purification of ComR-StreptagII proteins (StreptagII at C-terminus) was performed as described previously with some modifications. E. coli strain BL21 Gold cultures were grown in 2YT medium at 15°C until an OD600 of ~ 0.5, cooled down on ice for 10 minutes, and induced by addition of 0.2% of L-arabinose (wt vol^-1) before continuous shaking at 28°C for 4 h. Cells were then harvested by centrifugation (5,000 × g during 15 min at 8°C). The pellets were resuspended in cold buffer W (100 mM Tris-HCl pH 8.0, 150 mM NaCl, 1 mM EDTA) supplemented with 0.5 mg ml^−1 of lysozyme, incubated for 30 min at 4°C, and sonicated at 4°C. […] For structural and biophysical analyses, the purification protocol was completed by a size exclusion chromatography step using a HiLoad 16/600 Superdex 75 prep grade column (GE Healthcare) equilibrated in buffer W plus 10% (vol vol^-1) glycerol. Purified proteins were aliquoted, flash frozen and conserved at -20°C. Their purity was visualized by SDS-PAGE and their concentrations were measured using a Nanodrop apparatus (protein A280 method) (ThermoFisher Scientific).
Isothermal titration calorimetry (ITC) experiments were performed at 20°C in 20 mM Tris-HCl pH 8.0, 150 mM NaCl, 1 mM EDTA with an ITC200 calorimeter (Microcal). The protein concentration in the microcalorimeter cell and the peptide concentration in the syringe were set at 50 μM and 500 μM, respectively. A first injection of 0.4 μl, which was not taken into account for the fitting, was followed by 20 injections of 2 μl at intervals of 180 s. The peptide concentration used in the calculations is based on the weight of the lyophilized peptide and is therefore inaccurate because there may be a significant quantity of bound water, and salts or counter ions. However, the calculated number of binding sites, n, is always close to 1, in agreement with the 1:1 ratio observed in the crystal structure of the ternary complex. […] The data were analyzed using the MicroCal Origin software provided by the manufacturer. […] It was therefore not possible to distinguish the two events and the fitting was performed with the one-binding-site model. The calculated KD are therefore apparent values.

[10] = molecular target: T1, ComR E146A/D147A; test: EMSA; no XIP; ComR 4 uM; strong, multimeric complexes; EMSA: 20 mM Tris-HCl pH 8.0, 150 mM NaCl, 1 mM EDTA, 10% glycerol, 1 mg/ml BSA, 37 C 10 min, 40 ng DNA in 20 ul; crystal: 30% PEG 550 MME, 0.1 M MgCl2, 0.05 M Tris-HCl pH 8.5, 18 C; settings: protein: recombinant; tags: C-terminal StreptagII; chain copies: 2; label: Cy3 (Methods: Alexa 555), direct strand; blunt
[11] = molecular target: T2, ComR WT; test: EMSA; XIP 0.2-1.2 uM; ComR 4 uM; EMSA: 20 mM Tris-HCl pH 8.0, 150 mM NaCl, 1 mM EDTA, 10% glycerol, 1 mg/ml BSA, 37 C 10 min, 40 ng DNA in 20 ul; crystal: 30% PEG 550 MME, 0.1 M MgCl2, 0.05 M Tris-HCl pH 8.5, 18 C; settings: protein: recombinant; tags: C-terminal StreptagII; chain copies: 2; label: Cy3 (Methods: Alexa 555), direct strand; blunt
[12] = molecular target: T3, ComR K87A/K246A; test: EMSA; XIP up to 1.2 uM; ComR 4 uM; EMSA: 20 mM Tris-HCl pH 8.0, 150 mM NaCl, 1 mM EDTA, 10% glycerol, 1 mg/ml BSA, 37 C 10 min, 40 ng DNA in 20 ul; crystal: 30% PEG 550 MME, 0.1 M MgCl2, 0.05 M Tris-HCl pH 8.5, 18 C; settings: protein: recombinant; tags: C-terminal StreptagII; chain copies: 2; label: Cy3 (Methods: Alexa 555), direct strand; blunt

| Molecule | stability [1] | Kd [2] [nM] | Kd [3] [nM] | affinity in words ([3]; ITC, ComR R92A) | Kd [4] [nM] | KD value in words ([4]; ITC, ComR Y91A) | Kd [5] [nM] | Kd [6] [nM] | affinity in words [7] | Kd [8] [nM] | Kd [9] | binding result [10] | binding result [11] | binding result [12] |
| --- | --- | --- | --- | --- | --- | --- | --- | --- | --- | --- | --- | --- | --- | --- |
| CC(C)C[C@H](NC(=O)[C@H](CS)NC(=O)CNC(=O)[C@H](C)NC(=O)[C@H](Cc1ccccc1)NC(=O)[C@H](Cc1ccc(O)cc1)NC(=O)[C@@H]1CCCN1C(=O)[C@@H](N)CC(C)C)C(=O)O [XIP] (H-LPYFAGCL-OH) | more stable | 87 ± 9 | 277 ± 23 | decreased affinity for XIP | 141 ± 33 | same order of magnitude than observed with T90A mutant | 1170 ± 245 | 244 ± 108 | did not affect the affinity of ComR for the XIP peptide | 9 ± 3 | 10 nM and 8 nM |  |  |  |
| B1 |  |  |  |  |  |  |  |  |  |  |  | binds | binds | no binding |
